Assay results from US20260198497A1, “A BENZENE RING-SUBSTITUTED PYRIMIDINECARBOXYLIC ACID COMPOUND, PREPARATION METHOD THEREFOR, HERBICIDAL COMPOSITION AND APPLICATION THEREOF” (QINGDAO KINGAGROOT CHEMICAL COMPOUND CO., LTD., priority 2023, published 2026).

tested on: Veronica; assay: Post-emergence test on weeds; type: in vivo; parameters: key: 0 = no effect, 9 = completely dead (levels by growth control rate); conditions: 30 g a.i./ha, 3 weeks after application
Source text: The criteria for activity levels of plant damage (i.e., growth control rate) are as follows: • Level 9: completely dead; • Level 8: growth control rate is greater than or equal to 90% and less than 100%; • Level 7: growth control rate is greater than or equal to 80% and less than 90%; • Level 6: growth control rate is greater than or equal to 70% and less than 80%; • Level 5: growth control rate is greater than or equal to 50% and less than 70%; • Level 4: growth control rate is greater than or equal to 30% and less than 50%; • Level 3: growth control rate is greater than or equal to 20% and less than 30%; • Level 2: growth control rate is greater than or equal to 10% and less than 20%; • Level 1: growth control rate is less than 10%; • Level 0: no effect.
The above growth control rates are fresh weight control rates.
Monocotyledonous and dicotyledonous weed seeds (Descurainia sophia, Capsella bursa-pastoris, Abutilon theophrasti, Galium spurium, Stellaria media, Lithospermum arvense, Rorippa indica, Alopecurus aequalis, Alopecurus japonicus, Eleusine indica, Beckmannia syzigachne, Sclerochloa dura, Erigeron canadensis, Phleum paniculatum, Veronica, Bromus japonicus, Aegilops tauschii, Phalaris arundinacea, Amaranthus retroflexus, Chenopodium, Commelina communis, Cichorium endivia, Convolvulus arvensis, Cirsium arvense, Solanum nigrum, Acalypha australis, Digitaria sanguinalis, Echinochloa crusgalli, Setaria viridis, Setaria pumila, Leptochloa chinensis, Monochoria vaginalis, Sagittaria trifolia, Schoenoplectiella juncoides, Cyperus rotundus, Cyperus iria, Cyperus difformis, Fimbristylis, Portulaca oleracea, Xanthium sibiricum, Ipomoea nil, Eschenbachia japonica, etc.) and major crop seeds (wheat, maize, paddy rice, soybean, cotton, oilseed rape, millet, sorghum, potato, sesame, castor plant, Chinese cabbage, radish, etc.) were placed in plastic pots filled with soil and then covered with 0.5-2 cm of soil to allow them to grow in a favorable greenhouse environment. Two weeks after sowing, the test plants were treated at the stage of 2-3 leaves. The test compounds of the present invention were individually dissolved with acetone, then added with Tween® 80, with 1.5 L/ha of methyl oleate emulsifiable concentrate as a synergist, diluted into solution of a certain concentration using a certain amount of water, and sprayed to plants using a spray tower. After drug application, the experimental results on weeds were collected after 3 weeks of cultivation in a greenhouse. The compounds were applied at 120, 60, 30, and 15 g a.i./ha in triplicate, and the results were averaged.

SMILES | activity level of plant damage (growth control rate), Veronica
COc1c(N)nc(-c2ccc(Br)c(OC)c2F)nc1C(=O)OCc1ccccc1 [Compound 219] | 9
COc1c(N)nc(-c2ccc(C(F)(F)F)c(OC)c2F)nc1C(=O)OCC(OC)OC [Compound 76] | 9
C#CCOC(=O)c1nc(-c2ccc(C(F)(F)F)c(OC)c2F)nc(N)c1OC [Compound 57] | 9
COc1c(N)nc(-c2ccc(Br)c(OC)c2F)nc1C(=O)OCC#N [Compound 209] | 9
COc1c(N)nc(-c2ccc(C(F)(F)F)c(OC)c2F)nc1C(=O)OCC1CCCO1 (stereo not shown) [Compound 121] | 9
COc1c(N)nc(-c2ccc(C(F)(F)F)c(OC)c2F)nc1C(=O)OC1CCCC1 [Compound 119] | 9
COc1cc(-c2nc(N)c(OC)c(C(=O)OCc3ccccn3)n2)ccc1C(F)(F)F [Compound 150] | 9
COc1c(N)nc(-c2ccc(C(F)(F)F)c(OC)c2F)nc1C(=O)OCc1ccccc1F [Compound 133] | 9
CCSC(=O)c1nc(-c2ccc(C(F)(F)F)c(OC)c2)nc(N)c1OC [Compound 156] | 9
COc1c(N)nc(-c2ccc(C(F)(F)F)c(OC)c2F)nc1C(=O)O [Compound 1] | 9
COc1cc(-c2nc(N)c(OC)c(C(=O)OCc3cccnc3)n2)ccc1C(F)(F)F [Compound 151] | 9
COc1c(N)nc(-c2ccc(C(F)(F)F)c(OC)c2F)nc1C(=O)OC(C)C [Compound 26] | 9
COc1c(N)nc(-c2ccc(C(F)(F)F)c(OC)c2F)nc1C(=O)[O-].[Na+] [Compound 200] | 9
COc1c(N)nc(-c2ccc(C(F)(F)F)c(OC)c2F)nc1C(=O)OCC#N [Compound 103] | 9
COc1c(N)nc(-c2ccc(Br)c(OC)c2F)nc1C(=O)ON=C(C)C [Compound 210] | 9
COc1c(N)nc(-c2ccc(C(F)(F)F)c(OC)c2F)nc1C(=O)OCCO [Compound 73] | 9
COc1c(N)nc(-c2ccc(C(F)(F)F)c(OC)c2F)nc1C(=O)OCC(F)F [Compound 61] | 9
CCCOC(=O)c1nc(-c2ccc(C(F)(F)F)c(OC)c2F)nc(N)c1OC [Compound 25] | 9
COc1c(N)nc(-c2ccc(C(F)(F)F)c(OC)c2F)nc1C(=O)OCCC(F)(F)F [Compound 64] | 9
COc1cc(-c2nc(N)c(OC)c(C(=O)SC)n2)ccc1C(F)(F)F [Compound 155] | 9
COc1c(N)nc(-c2ccc(C(F)(F)F)c(OC)c2F)nc1C(=O)OCC(C)F (stereo not shown) [Compound 191] | 9
COc1c(N)nc(-c2ccc(C(F)(F)F)c(OC)c2F)nc1C(=O)OCc1ccccc1 [Compound 130] | 9
C=CCOC(=O)c1nc(-c2ccc(C(F)(F)F)c(OC)c2F)nc(N)c1OC [Compound 52] | 9
COCCSC(=O)c1nc(-c2ccc(C(F)(F)F)c(OC)c2F)nc(N)c1OC [Compound 190] | 9
COC(=O)C(C)OC(=O)c1nc(-c2ccc(C(F)(F)F)c(OC)c2F)nc(N)c1OC (stereo not shown) [Compound 82] | 9
COc1c(N)nc(-c2ccc(C(F)(F)F)c(OC)c2F)nc1C(=O)OCCF [Compound 58] | 9

SMILES | activity level of plant damage (growth control rate), Veronica
COc1c(N)nc(-c2ccc(Br)c(OC)c2F)nc1C(=O)OCC1CCCO1 (stereo not shown) [Compound 218] | 9
COc1cc(-c2nc(N)c(OC)c(C(=O)OCc3ccncc3)n2)ccc1C(F)(F)F [Compound 152] | 9
COC(=O)c1nc(-c2ccc(Br)c(OC)c2F)nc(N)c1OC [Compound 201] | 9
COc1c(N)nc(-c2ccc(C(F)(F)F)c(OC)c2F)nc1C(=O)OCc1ccn(C)n1 [Compound 193] | 9
COCOC(=O)c1nc(-c2ccc(C(F)(F)F)c(OC)c2F)nc(N)c1OC [Compound 72] | 9
COc1c(N)nc(-c2ccc(Br)c(OC)c2F)nc1C(=O)OC(C)C [Compound 204] | 9
CCOC(=O)c1nc(-c2ccc(Br)c(OC)c2F)nc(N)c1OC [Compound 202] | 9
COc1c(N)nc(-c2ccc(C(F)(F)F)c(OC)c2F)nc1C(=O)OCCCF [Compound 63] | 9
COc1c(N)nc(-c2ccc(C(F)(F)F)c(OC)c2F)nc1C(=O)Oc1ccccc1 [Compound 129] | 9
COc1c(N)nc(-c2ccc(C(F)(F)F)c(OC)c2F)nc1C(=O)ON=C(C)C(C)(C)C [Compound 192] | 9
CCOC(=O)COC(=O)c1nc(-c2ccc(C(F)(F)F)c(OC)c2F)nc(N)c1OC [Compound 81] | 9
CCCOC(=O)c1nc(-c2ccc(Br)c(OC)c2F)nc(N)c1OC [Compound 203] | 9
COc1c(N)nc(-c2ccc(C(F)(F)F)c(OC)c2F)nc1C(=O)OCCBr [Compound 60] | 9
CCOCCOC(=O)c1nc(-c2ccc(C(F)(F)F)c(OC)c2F)nc(N)c1OC [Compound 21] | 9
COc1c(N)nc(-c2ccc(Br)c(OC)c2F)nc1C(=O)OCC(F)F [Compound 205] | 9
COc1c(N)nc(-c2ccc(C(F)(F)F)c(OC)c2F)nc1C(=O)[O-].[K+] [Compound 199] | 9
CCOC(=O)OC(C)OC(=O)c1nc(-c2ccc(C(F)(F)F)c(OC)c2F)nc(N)c1OC (stereo not shown) [Compound 93] | 9
CCCOCCOC(=O)c1nc(-c2ccc(C(F)(F)F)c(OC)c2F)nc(N)c1OC [Compound 22] | 9
COCCOC(=O)c1nc(-c2ccc(Br)c(OC)c2F)nc(N)c1OC [Compound 212] | 9
COc1c(N)nc(-c2ccc(C(F)(F)F)c(OC)c2F)nc1C(=O)OCC1CC1 [Compound 117] | 9
COc1c(N)nc(-c2ccc(Br)c(OC)c2F)nc1C(=O)OCCSC [Compound 214] | 9
COc1c(N)nc(-c2ccc(C(F)(F)F)c(OC)c2F)nc1C(=O)OCCCl [Compound 59] | 9
COC(=O)c1nc(-c2ccc(C(F)(F)F)c(OC(F)F)c2F)nc(N)c1OC [Compound 247] | 9
COCCOCCOC(=O)c1nc(-c2ccc(C(F)(F)F)c(OC)c2F)nc(N)c1OC [Compound 23] | 9
CCSC(=O)c1nc(-c2ccc(Br)c(OC)c2F)nc(N)c1OC [Compound 222] | 9
COc1c(N)nc(-c2ccc(C(F)(F)F)c(OC)c2F)nc1C(=O)OCCSC [Compound 100] | 9
